In PubChem BioAssay AID328 (DTP/NCI, 2004):
Values joined by “and” are separate entries in the source; they are usually repeats but may differ in a detail not shown here. Identical values can stand only once. Toxic doses and inconclusive results are not listed.

System: BDF1 mice, P388 leukemia ip, median survival T/C
Assay: NCI In Vivo Anticancer Drug Screen. Data for tumor model P388 Leukemia (intraperitoneal) in B6D2F1 (BDF1) mice
Settings: endpoint: median survival time, higher = longer survival
In short: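 Steps: implant the tumour, treat one group with compound and another with vehicle, record survival, then divide treated by control.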

[1] = dose: 12.5 mg/kg/injection, schedule: Q04DX003 (ip), vehicle: saline with Tween-80
[2] = dose: 25.0 mg/kg/injection, schedule: Q04DX003 (ip), vehicle: saline with Tween-80
[3] = dose: 50.0 mg/kg/injection, schedule: Q04DX003 (ip), vehicle: saline with Tween-80
[4] = dose: 50.0 mg/kg/injection, schedule: Q01DX009 (ip), vehicle: Klucel (hydroxypropylcellulose) (HPC)
[5] = dose: 200.0 mg/kg/injection, schedule: Q01DX009 (ip), vehicle: Klucel (hydroxypropylcellulose) (HPC)
[6] = dose: 6.25 mg/kg/injection, schedule: Q01DX009 (ip), vehicle: saline with Tween-80
[7] = dose: 50.0 mg/kg/injection, schedule: Q01DX009 (ip), vehicle: saline with Tween-80
[8] = dose: 100.0 mg/kg/injection, schedule: Q01DX009 (ip), vehicle: saline with Tween-80
[9] = dose: 100.0 mg/kg/injection, schedule: Q04DX003 (ip), vehicle: saline with Tween-80
[10] = dose: 25.0 mg/kg/injection, schedule: Q01DX009 (ip), vehicle: saline with Tween-80
[11] = dose: 100.0 mg/kg/injection, schedule: Q01DX005 (ip), vehicle: saline with Tween-80
[12] = dose: 12.5 mg/kg/injection, schedule: Q01DX009 (ip), vehicle: Klucel (hydroxypropylcellulose) (HPC)
[13] = dose: 25.0 mg/kg/injection, schedule: Q01DX009 (ip), vehicle: Klucel (hydroxypropylcellulose) (HPC)
[14] = dose: 50.0 mg/kg/injection, schedule: Q04DX003 (ip), vehicle: saline
[15] = dose: 100.0 mg/kg/injection, schedule: Q04DX003 (ip), vehicle: saline
[16] = dose: 200.0 mg/kg/injection, schedule: Q04DX003 (ip), vehicle: saline

`Oc1ccc(-c2n[nH]c3c2CCCc2ccccc2-3)cc1` was tested, and the T/C [1] was 109 % of control, the T/C [2] was 118 % of control and the T/C [3] was 113 % of control.

In the case of `CC(=O)/C=C\c1ccc(Cl)cc1`, the T/C [4] is reported as 100 % of control, the T/C (dose: 100.0 mg/kg/injection, schedule: Q01DX009 (ip), vehicle: Klucel (hydroxypropylcellulose) (HPC)) is reported as 111 % of control and the T/C [5] is reported as 109 % of control. For the same compound, the T/C (dose: 400.0 mg/kg/injection, schedule: Q01DX009 (ip), vehicle: Klucel (hydroxypropylcellulose) (HPC)) was 111 % of control.

For `CN1CCN(C(=O)Cc2c[nH]c3ccccc23)CC1`, the T/C [6] was 105 % of control, the T/C [1] was 111 % of control and the T/C [2] was 101 % of control. The T/C [7] was 95 % of control, the T/C [3] was 104 % of control and the T/C [8] was 89 % of control. The T/C [9] was 113 % of control.

For `CS(=O)(=O)OCCN(CCOS(C)(=O)=O)c1ccc(C=O)cc1`, the T/C (dose: 3.0 mg/kg/injection, schedule: Q04DX003 (ip), vehicle: saline with Tween-80) was 227 % of control, the T/C (dose: 3.13 mg/kg/injection, schedule: Q01DX009 (ip), vehicle: saline with Tween-80) was 210 % of control and the T/C (dose: 5.0 mg/kg/injection, schedule: Q04DX003 (ip), vehicle: saline with Tween-80) was 177 % of control. The T/C [6] was 229 % of control, the T/C (dose: 8.0 mg/kg/injection, schedule: Q01DX009 (ip), vehicle: saline with Tween-80) was 237 % of control and the T/C (dose: 8.0 mg/kg/injection, schedule: Q04DX003 (ip), vehicle: saline with Tween-80) was 181 % of control. For the same compound, the T/C (dose: 8.25 mg/kg/injection, schedule: Q04DX003 (ip), vehicle: saline with Tween-80) was 195 % of control, the T/C (dose: 12.0 mg/kg/injection, schedule: Q01DX009 (ip), vehicle: saline with Tween-80) was 212 % of control and the T/C (dose: 12.5 mg/kg/injection, schedule: Q01DX009 (ip), vehicle: saline with Tween-80) was 231 % of control and 176 % of control. For the same compound, the T/C [1] was 212 % of control, the T/C (dose: 18.0 mg/kg/injection, schedule: Q01DX009 (ip), vehicle: saline with Tween-80) was 250 % of control and the T/C (dose: 18.75 mg/kg/injection, schedule: Q04DX003 (ip), vehicle: saline with Tween-80) was 250 % of control. The T/C [10] was 86 % of control.

`NC(=S)N/N=C/c1ccc(NC(=O)c2ccccc2C(=O)O)cc1` was tested, and the T/C [10] was 95 % of control, the T/C [7] was 87 % of control and the T/C [8] was 100 % of control.

In the case of `CC(=O)c1ccc2c(c1)N(CCCN1CCN(CCO)CC1)c1ccccc1S2`, the T/C (dose: 3.12 mg/kg/injection, schedule: Q01DX009 (ip), vehicle: saline) is reported as 107 % of control, the T/C (dose: 6.25 mg/kg/injection, schedule: Q01DX009 (ip), vehicle: saline) is reported as 96 % of control and the T/C (dose: 12.5 mg/kg/injection, schedule: Q01DX009 (ip), vehicle: saline) is reported as 94 % of control.

In the case of `N=C1SCc2ccc3ccccc3c21`, the T/C [7] is reported as 104 % of control and the T/C [8] is reported as 106 % of control.

`Cc1cc(=O)n(Cc2ccco2)c(=S)[nH]1` was tested, and the T/C (dose: 50.0 mg/kg/injection, schedule: Q01DX005 (ip), vehicle: saline with Tween-80) was 98 % of control and the T/C [11] was 93 % of control.

With `Nc1nc(N)c2cc(CNc3ccc(C(=O)NC(CC(=O)O)CC(=O)O)cc3)ccc2n1` the T/C (dose: 132.0 mg/kg/injection, schedule: Q01DX009 (ip), vehicle: saline with Tween-80) was 90 % of control.

`Clc1nc2nc(C(Cl)(Cl)Cl)[nH]c2nc1Cl` was tested, and the T/C [12] was 95 % of control, the T/C [13] was 108 % of control and the T/C [4] was 116 % of control.

For `CC12CCC3C4CCC(=O)C(O)=C4CCC3C1CCC2OC(=O)CCC1CCCC1` (stereo unspecified), the T/C (dose: 100.0 mg/kg/injection, schedule: Q04DX003 (sc), vehicle: steriod suspending solution) was 86 % of control and the T/C (dose: 400.0 mg/kg/injection, schedule: Q04DX003 (sc), vehicle: steriod suspending solution) was 95 % of control.

With `CC(O)CN1CCCC1` (stereo unspecified) the T/C [14] was 91 % of control, the T/C [15] was 104 % of control and the T/C [16] was 104 % of control.

`O=C(O)c1ccc(S(=O)(=O)O)cc1C(=O)O` was tested, and the T/C [14] was 104 % of control, the T/C [15] was 100 % of control and the T/C [16] was 91 % of control.

In the case of `O=C(CN1CCCCC1)Nc1nc(-c2ccc(Cl)cc2)cs1`, the T/C [11] is reported as 91 % of control.

In the case of `Nc1ncnc2c1c(C(=O)O)cn2C1OC(CO)C(O)C1O` (stereo unspecified), the T/C (dose: 66.0 mg/kg/injection, schedule: Q04DX003 (ip), vehicle: saline with Tween-80) is reported as 160 % of control and the T/C [9] is reported as 150 % of control and 170 % of control.

With `NC(CO)C(=O)O.[Cl-].[Cl-].[Cl-].[Cl-].[Pt+2]` (stereo unspecified) the T/C (dose: 50.0 mg/kg/injection, schedule: Q01DX009 (ip), vehicle: saline) was 116 % of control.

`CCSc1nc(Cl)cc(Sc2nc(N)nc3nc[nH]c23)n1` was tested, and the T/C (dose: 17.0 mg/kg/injection, schedule: Q01DX010 (ip), vehicle: acetone) was 113 % of control, the T/C (dose: 18.0 mg/kg/injection, schedule: Q01DX009 (ip), vehicle: Klucel (hydroxypropylcellulose) (HPC)) was 115 % of control and the T/C (dose: 26.0 mg/kg/injection, schedule: Q01DX010 (ip), vehicle: acetone) was 168 % of control. For the same compound, the T/C (dose: 40.0 mg/kg/injection, schedule: Q01DX010 (ip), vehicle: saline) was 150 % of control, the T/C (dose: 60.0 mg/kg/injection, schedule: Q01DX010 (ip), vehicle: saline) was 165 % of control and the T/C (dose: 132.0 mg/kg/injection, schedule: Q01DX010 (ip), vehicle: saline) was 110 % of control. For the same compound, the T/C [5] was 95 % of control and the T/C (dose: 200.0 mg/kg/injection, schedule: Q01DX010 (ip), vehicle: saline) was 90 % of control.

`N#Cc1ccc(CC(O)c2ccc(Cl)cc2)cc1` (stereo unspecified) was tested, and the T/C [7] was 108 % of control, the T/C [8] was 89 % of control and the T/C (dose: 200.0 mg/kg/injection, schedule: Q01DX009 (ip), vehicle: saline with Tween-80) was 96 % of control.

In the case of `COc1cc([C@@H]2c3cc4c(c(OC)c3C[C@H]3COC(=O)[C@@H]32)OCO4)cc(OC)c1OC`, the T/C (dose: 12.5 mg/kg/injection, schedule: Q01DX001 (ip), vehicle: other) is reported as 105 % of control, the T/C (dose: 12.5 mg/kg/injection, schedule: Q01DX010 (ip), vehicle: saline) is reported as 172 % of control and the T/C (dose: 25.0 mg/kg/injection, schedule: Q01DX001 (ip), vehicle: saline) is reported as 100 % of control. For the same compound, the T/C (dose: 25.0 mg/kg/injection, schedule: Q01DX010 (ip), vehicle: saline) was 104 % of control, the T/C (dose: 50.0 mg/kg/injection, schedule: Q01DX001 (ip), vehicle: saline) was 113 % of control and the T/C (dose: 50.0 mg/kg/injection, schedule: Q01DX010 (ip), vehicle: other) was 90 % of control. For the same compound, the T/C (dose: 100.0 mg/kg/injection, schedule: Q01DX001 (ip), vehicle: saline) was 113 % of control and the T/C (dose: 200.0 mg/kg/injection, schedule: Q01DX001 (ip), vehicle: saline) was 118 % of control.

In the case of `COc1ccc2c(c1)CCC(=O)O2`, the T/C (dose: 100.0 mg/kg/injection, schedule: Q04DX003 (ip), vehicle: saline sonified) is reported as 91 % of control, the T/C (dose: 200.0 mg/kg/injection, schedule: Q04DX003 (ip), vehicle: saline sonified) is reported as 95 % of control and the T/C (dose: 400.0 mg/kg/injection, schedule: Q04DX003 (ip), vehicle: saline sonified) is reported as 100 % of control.

In the case of `CC(C(=O)O)c1ccccc1` (stereo unspecified), the T/C (dose: 50.0 mg/kg/injection, schedule: Q01DX009 (ip), vehicle: other) is reported as 101 % of control, the T/C (dose: 100.0 mg/kg/injection, schedule: Q01DX009 (ip), vehicle: other) is reported as 106 % of control and the T/C (dose: 200.0 mg/kg/injection, schedule: Q01DX009 (ip), vehicle: other) is reported as 110 % of control.

With `CCC[CH2][Sn]([Cl])([CH2]CCC)[S]C(=S)NCCNC(=S)[S][Sn]([Cl])([CH2]CCC)[CH2]CCC` the T/C (dose: 1.56 mg/kg/injection, schedule: Q04DX003 (ip), vehicle: Klucel (hydroxypropylcellulose) (HPC)) was 110 % of control, the T/C (dose: 3.12 mg/kg/injection, schedule: Q01DX009 (ip), vehicle: Klucel (hydroxypropylcellulose) (HPC)) was 105 % of control and the T/C (dose: 3.13 mg/kg/injection, schedule: Q04DX003 (ip), vehicle: Klucel (hydroxypropylcellulose) (HPC)) was 124 % of control. The T/C (dose: 6.25 mg/kg/injection, schedule: Q01DX009 (ip), vehicle: Klucel (hydroxypropylcellulose) (HPC)) was 153 % of control, the T/C (dose: 6.25 mg/kg/injection, schedule: Q04DX003 (ip), vehicle: Klucel (hydroxypropylcellulose) (HPC)) was 154 % of control and the T/C [12] was 156 % of control and 158 % of control. For the same compound, the T/C (dose: 12.5 mg/kg/injection, schedule: Q04DX003 (ip), vehicle: Klucel (hydroxypropylcellulose) (HPC)) was 100 % of control and 105 % of control and the T/C [13] was 194 % of control.
